Source: US20080275215A1, “Fluorescein-Based Compounds And Their Use For Peptide Synthesis” (COMMISSARIAT A L'ENERGIE ATOMIQUE, priority 2005, published 2008)

Assays:
Assay type in all cases: physicochemical
[1] = UV-visible absorbance spectra; details: for absorbance maximum (longer wavelength) / absorbance maximum (shorter wavelength): 50 mM sodium tetraborate buffer pH 9.8; for molar extinction coefficient: at 456 nm
Experimental: (§1) Standard UV-visible and fluorescence spectra were recorded in 50 mM sodium tetraborate buffer pH 9.8 at 0.5-10 μM fluorescent compounds concentration. The fluorescence quantum yield of the fluorescent compounds was determined as described by Adamczyk et al. (previously cited) using alkaline solution of fluorescein as a reference (φ=0.92) (Lohse et al.; Adamczyk et al.; Klonis et al. and Martin et al., all previously cited).

[2] = Fluorescence emission spectra and fluorescence quantum yield; details: for fluorescence emission λmax: 50 mM sodium tetraborate buffer pH 9.8; for fluorescence quantum yield φ: alkaline fluorescein as reference
Experimental: as §1

[3] = pH effect on fluorescence; details: range of pH 4.0-10.0; λexc 488 nm/λem 515 nm
Experimental: To measure the pH effect on fluorescence, 50 nM of fluorescent compounds k) (dye 15) or l) (dye 16) solution in 50 mM sodium tetraborate buffer (pH 9.8) was slowly titrated with HCl, aliquots were taken between pH 9.8 and 4, and fluorescence was measured at λexc 488 nm/λem 515 nm.

[4] = Stability of 2'-ester toward alkaline hydrolysis; details: several hours in aqueous pH 9.8 buffer
From the text: This is explained by the absence of ionic equilibrium in 3-O-alkyl fluorescein derivatives trapped in a tautomeric quinoid form by 2′-esterification. The stability of 2′-ester toward an alkaline hydrolysis was also checked by following the absorbance and fluorescence spectra.

[5] = Dye photostability (photobleaching) study under fluorescence microscope; details: after 6 min of irradiation
Experimental: Super-Teflon glass slides (VWR International) carrying 40 circular wells of 2 mm diameter, separated by 30 μm-thick Teflon coating were used in dye photostability study. A well was filled with 1 μl of 5 mM fluorescein compounds k) (dye 15) or 1) (dye 16) solution in 50 mM sodium tetraborate buffer pH 9.8 and was enclosed with a coverslip.
The entire well volume was irradiated under the microscope with standard “fluorescein” filters set. The intensity delivered by the source on the surface of the slide was measured with a COHERENT LaserCheck probe, and found to be ˜6 mW/cm^2 at 488 nm. Well images were recorded regularly with IMSTAR software and mean fluorescence intensity was calculated.
For comparison of the photostability of fluorophores under the condition of signal acquisition with fluorescent microscope, the sample was placed in a well on the surface of a glass slide that contains 40 circular wells of 2 mm diameter, separated by 30 μm-thick Teflon coating. The well was then enclosed with a coverslip producing a cylindrical sample chamber of ˜380 nl volume. […] The resulted light intensity at the chamber level was measured to be ˜6 mW/mm^2. At different times the fluorescence images of the well were taken and mean fluorescence intensity was calculated using IMSTAR software (Khomyakova et al., previously cited).

Compound	absorbance maximum (longer wavelength) [1]	absorbance maximum (shorter wavelength) [1]	molar extinction coefficient [1]	fluorescence emission λmax [2]	fluorescence quantum yield φ [2]	pH-dependence of fluorescence and quantum yield [3]	changes in absorbance and fluorescence spectra (2'-ester alkaline hydrolysis) [4]	decrease in fluorescence [5]
CCOC(=O)c1cc(NC(C)=O)ccc1-c1c2ccc(=O)cc-2oc2cc(OCC(=O)O)ccc12 [k), 5-acetylamino-2-(6-carboxymethoxy-3-oxo-3H-xanthen-9-yl)-benzoic acid ethyl ester]	481 nm	456 nm	22000 L/mol/cm	520 nm	0.19	virtually pH-independent	No significant changes	~10%
CCOC(=O)c1ccc(NC(C)=O)cc1-c1c2ccc(=O)cc-2oc2cc(OCC(=O)O)ccc12 [l), 4-acetylamino-2-(6-carboxymethoxy-3-oxo-3H-xanthen-9-yl)-benzoic acid ethyl ester]	481 nm	456 nm	23000 L/mol/cm	520 nm	0.18	virtually pH-independent	No significant changes	~10%
